From patent publication EP4772523A1, “D-PEPTIDE AND USE THEREOF” (HIROSAKI UNIVERSITY, priority 2023, dated 2025)
*1 amine or outer side, *2 acyl side, *3 side chain or, on linkers, in order; H or OH if unused. Where a SMILES comes first, the peptide text is derived from it. Where no end group is shown, it is not given here. [ ]: non-standard residue; d: D form. The star is where a group is joined. Dolaproine = CO[C@@H]([C@@H]1CCCN1)[C@@H](C)C(=O)O; Hexanoyl(6-maleimido) = O=C1C=CC(=O)N1CCCCCC(=O)*; Dil = CC[C@H](C)[C@H](NC)[C@@H](CC(=O)O)OC; PABC = O=C(OCc1ccc(N[*:1])cc1)[*:2]; X1 = C[C@@H](N*)[C@@H](O)c1ccccc1; Cit = NC(=O)NCCC[C@H](N)C(=O)O; NMeV = CN[C@H](C(=O)O)C(C)C

Assays:
[1] = target: L-MC16 (L-amino acid MC16 peptide, 15 N-terminal residues of annexin A1) (human or mouse ANXA1 ("such as human ANXA1 or mouse ANXA1")); test: BLI (Octet K2), biotinylated D-peptide on SSA biosensor, L-MC16 as analyte, 37°C, 1:1 model
[2] = tested on: PSMA-negative/ANXA1-negative human prostate cancer cells PC3 and PSMA-positive/ANXA1-positive PC3 cells; test: Anticancer treatment in back subcutaneous PC3 tumor model; format: in vivo, nude mice; conditions: 0.919 mg/kg, post-treatment
Method: 1 × 10^6 PSMA-negative/ANXA1-negative human prostate cancer cells PC3 were inoculated into the left back of nude mice, and 1 × 10^6 PSMA-positive/ANXA1-positive PC3 cells were inoculated into the right back of the nude mice. […] As control, 0.919 mg/kg (22.975 ng vcMMAE/25 g mouse) of vcMMAE alone (molecular weight: 1316.6) was administered. The tumor size was monitored by measuring the average radiance (photon/sec/cm^2/sr) of the luciferase-expressing tumor after injection of luciferin (150 mg/mouse) using an IVIS system. After three courses of administration, the tumor size, body weight, pathological test, blood biochemical test, and blood cell count test values were evaluated (FIG. 41).

[3] = tested on: PSMA-negative/ANXA1-negative human prostate cancer cells PC3 and PSMA-positive/ANXA1-positive PC3 cells; test: Anticancer treatment in femur subcutaneous PC3 tumor model; format: in vivo, nude mice; conditions: vcMMAE-dhp7 1.25 mg/kg or vcMMAE 0.919 mg/kg intraperitoneal every four days, three courses; femur tumors
Method: As control, 0.919 mg/kg (22.975 ng vcMMAE/25 g mouse) of vcMMAE alone (molecular weight: 1316.6) was administered. The tumor size was monitored by measuring the average radiance (photon/sec/cm^2/sr) of the luciferase-expressing tumor after injection of luciferin (150 mg/mouse using an IVIS system. After three courses of administration, the average radiance of the luciferase-expressing tumor and the body weight were evaluated (FIG. 46).

[4] = tested on: PC3-Luc2-PSMA+/ANXA1-positive cells; test: Cytotoxicity (Cell Counting Kit-8) to ANXA1-positive PC3 cells; format: cell-based, human
Method: The cell viability was analyzed by Cell Counting Kit-8 (Dojindo), and the IC50 value was calculated (FIG. 40).

[5] = tested on: PSMA-positive/ANXA1-positive PC3 cells; test: Anticancer treatment in femur PC3 tumor model at same vcMMAE dose; format: in vivo, mice; conditions: vcMMAE-dhp7 2.14 mg/kg or vcMMAE 1.25 mg/kg intraperitoneal every four days, four courses
Method: 2 × 10^6 PSMA-positive/ANXA1-positive PC3 cells were inoculated into the right femur. […] As control, 1.25 mg/kg (31.25 ng vcMMAE/25 g mouse) of vcMMAE alone (molecular weight: 1316.6) was administered. The tumor size was monitored by measuring the average radiance (photon/sec/cm^2/sr) of the luciferase-expressing tumor after injection of luciferin (150 mg/mouse using an IVIS system. After four courses of administration, the average radiance of the luciferase-expressing tumor and the body weight were evaluated (FIG. 48).

[6] = tested on: PC3, SAS, and MG-63 cells; test: Uptake of ^10BSH in PC3, SAS and MG-63 cells by immunofluorescent staining; format: cell-based, human; conditions: compared with non-addition group
Method: (§1) Uptake of ^10BSH-vc-dhp7 in cancer cells was examined. 330 µg of ^10BSH-vc-dhp7, 403.6 µg of […](EMCS-^10BSH)RR (IF7-^10BSH (a compound described in WO2019244954)) (SEQ ID NO: 40 ([…])), or 50 µg of ^10BSH was added to PC3-PSMA+ and PC3-PSMA- cells seeded in a 3.5 cm culture dish (ib81156) manufactured by ibidi. 24 hours later, the cells were washed with PBS three times and then fixed with 4% PFA. Each peptide-boron compound was prepared to have a boron concentration that allows 50 µg of ^10BSH to be finally added. After blocking with 3% BSA BD PhosFlow perm/wash buffer I (BD557885), 3% BSA BD PhosFlow perm/wash buffer I containing 1 µg/ml of the rabbit anti-^10BSH polyclonal antibody #52 was reacted at room temperature for one hour with ^10BSH taken up into the cells. After washing with PBS three times, it was reacted at room temperature for one hour with an APC-labeled anti-mouse IgG antibody (diluted 1000-fold) to detect the rabbit anti-^10BSH polyclonal antibody, and washed with PBS three times. Then, intracellular uptake of […], IF7-^10BSH, or ^10BSH in each cancer cell was examined by a fluorescence microscope (Keyence BZ9000) (FIGS. 27 and 28).

[7] = tested on: human head and neck cancer cells SAS; test: BNCT in ANXA1-positive head and neck cancer model; format: in vivo, nude mice
Method: (§2) Since it was found in Example 10 that the boron concentration in the tumor tissue by administration of ^10BSH-vc-dhp7 is sufficient for the antitumor effect of neutron capture therapy (BNCT), boron neutron capture therapy by EMCS-^10BSH-vc-dhp7 was attempted in ANXA1-negative human prostate cancer and ANXA 1-positive head and neck cancer models. […] Starting from 24 hours after the administration, the tumor area was irradiated with thermal neutrons at 20 MeV 100 mA for 60 minutes using an accelerator manufactured by Sumitomo Heavy Industries (dose: 1.63 × 10^12/cm^2, average 0.23 Gy). One week after the irradiation, second BNCT treatment was performed.
(§3) Irradiation with thermal neutrons was then performed. One week after the second irradiation, mice of each group were sacrificed. The tumor size and the tumor weight were measured, and pathological analysis of the resected tissue was performed to verify the antitumor effect. The tumor volume was measured from the start of administration until sacrifice by the calculation formula: V = long axis × short axis × short axis/2) (FIGS. 38 and 39).

[8] = State of dissolution in physiological saline at dosing concentration; format: physicochemical; conditions: dosing solutions: ^10BSH 1.25 mg/25 g mouse, ^10BSH-vc-dhp7 8.25 mg/25 g mouse, IF7-^10BSH 10.08 mg/25 g mouse
Source text: Thus, it was shown that ^10BSH-vc-dhp7 is more soluble and more flexible in designing the dosage form than IF7-^10BSH.

[9] = tested on: human prostate cancer cells PC3-PSMA-/ANXA1-; test: BNCT in ANXA1-negative prostate cancer model; format: in vivo, nude mice; conditions: ^10BSH 50 mg/kg or conjugate 330 mg/kg intraperitoneal, two irradiations
Method: as §2, §3

[10] = tested on: PC3-PSMA+ and PC3-PSMA- cells; test: Uptake of ^10BSH in PC3 cells by immunofluorescent staining (Val-Cit conjugate); format: cell-based, human
Method: as §1

[11] = tested on: MBT2 and PC3-PSMA+ cells; test: Uptake of ^10BSH in cancer cells by immunofluorescent staining with anti-^10BSH antibody; format: cell-based; conditions: 50 µg added, 24 hours; compared with ^10BSH
Method: Uptake of ^10BSH-dhp7 in cancer cells was examined. 50 µg of ^10BSH-dhp7 or ^10BSH was added to MBT2 and PC3-PSMA+ cells seeded in a 3.5 cm culture dish (ib81156) manufactured by ibidi. 24 hours later, the cells were washed with PBS three times and then fixed with 4% PFA. After blocking with 3% BSA BD PhosFlow perm/wash buffer I (BD557885), 3% BSA BD PhosFlow perm/wash buffer I containing 1 µg/ml of the rabbit anti-^10BSH polyclonal antibody #52 was reacted at room temperature for one hour with ^10BSH taken up into the cells. After washing with PBS three times, it was reacted at room temperature for one hour with an APC-labeled anti-mouse IgG antibody (diluted 1000-fold) to detect the rabbit anti-^10BSH polyclonal antibody, and washed with PBS three times. Then, intracellular uptake of ^10BSH-dhp7 or ^10BSH in each cancer cell was examined by a fluorescence microscope (Keyence BZ9000) (FIG. 16).

[12] = tested on: mouse bladder cancer cells MBT2; test: Boron neutron capture therapy (BNCT) in mouse bladder cancer model; format: in vivo, C3H/HeN mice
Method: Since it was found in Example 6 that ^10BSH-dhp7 is taken up into Anxa1-positive cancer cells, boron neutron capture therapy by ^10BSH-dhp7 was attempted in a mouse bladder cancer model.
Starting from 48 hours after the administration, the tumor area was irradiated with thermal neutrons at 20 MeV 100 mA for 60 minutes using an accelerator manufactured by Sumitomo Heavy Industries (dose: 1.63 × 10^12/cm^2, average 0.23 Gy). One week after the irradiation, second BNCT treatment was performed. 24 hours prior to irradiation with thermal neutrons, 20 mg/kg (0.4 mg/20 g mouse) of ^10BSH-dhp7 was intraperitoneally administered. Irradiation with thermal neutrons was then performed. One week after the second irradiation, mice of each group were sacrificed. The tumor size and the tumor weight were measured, and pathological analysis of the resected tissue was performed to verify the antitumor effect. The tumor volume was measured from the start of administration until sacrifice by the calculation formula: V = long axis × short axis × short axis/2) (FIG. 17).

[13] = tested on: PC3-PSMA-/ANXA1- and PC3-PSMA+/ANXA1+; conditions: mouse, in vivo, ip, 28.7 mg/kg
Source text: Further, variation in accumulation depending on the tumor size was examined. […] Tumor accumulation was examined in the same manner as above (FIG. 22).

[14] = tested on: human head and neck cancer cells SAS and human osteosarcoma cancer cells MG-63; conditions: mouse, in vivo
Method: 96 hours after the administration, the mice were sacrificed, and the main organs were resected and then imaged ex vivo.

## biotin-dqy7 (D-amino acid peptide qyatnlk modified with biotin at the N-terminus)
[1]
  Kd: 990 nM

## CC[C@H](C)[C@@H]([C@@H](CC(=O)N1CCC[C@H]1[C@H](OC)[C@@H](C)C(=O)N[C@H](C)[C@@H](O)c1ccccc1)OC)N(C)C(=O)[C@@H](NC(=O)[C@H](C(C)C)N(C)C(=O)OCc1ccc(NC(=O)[C@H](CCCNC(N)=O)NC(=O)[C@@H](NC(=O)CCCCCN2C(=O)C=CC2=O)C(C)C)cc1)C(C)C [vcMMAE] ({Hexanoyl(6-maleimido)}-V[Cit][PABC][NMeV]V[Dil][Dolaproine]-X1)
[2]
  white blood cell count: reduced
[3]
  average radiance of luciferase-expressing tumor: tended to increase
[4]
  in-vitro sensitivity of Anxa1-positive cells relative to ANXA1-negative cells: twice
[5]
  average radiance of luciferase-expressing tumor: tended to increase

## EMCS-^10BSH-val-cit-hpnevrs ([dH][dP][dN][dE][dV][dR][dS]; not fully specified (N-terminus); printed as EMCS-^10BSH-val-cit-hpnevrs) [^10BSH-vc-dhp7]
[6]
  intracellular intake of ^10BSH: statistically significant intracellular intake of ^10BSH in all cells
[7]; ANXA1-positive head and neck cancer model, 330 mg/kg intraperitoneal, starting immediately after the first BNCT
  tumor growth suppressing effect, BNCT treatment group: tumor growth suppressing effect more remarkable than that in the ^10BSH and BNCT treatment group
[7]; one week after the second irradiation
  tumor volume compared with ^10BSH and BNCT treatment group: reduced tumor volume
[8]
  state in physiological saline: in a dissolved state
[9]
  tumor reduction effect, BNCT treatment group: no tumor reduction effect was observed
[10]; ANXA1-positive PC3 cells, versus IF7-^10BSH and ^10BSH treatment groups
  efficiency of intracellular intake of ^10BSH: statistically significantly higher
[10]; PSMA-negative cells expressing less ANXA1 on the cell surface
  uptake in PSMA-negative cells compared with PSMA-positive cells: took up ^10BSH-vc-dhp7 less than the PSMA-positive cells did
[10]; amount equal to 50 µg of ^10BSH, 24 hours, compared with ^10BSH
  intracellular uptake of ^10BSH (fluorescence): more dotted intracellular fluorescence was observed

## biotin-dhp7 (D-amino acid peptide hpnevrs modified with biotin at the N-terminus)
[1]
  Kd: 480 nM

## IFLLWQRK(EMCS-^10BSH)RR (EMCS-10BSH boron cluster; C-terminal RR) [IF7-^10BSH, reference compound]
[8]
  state in physiological saline: poorly soluble and cloudy

## EMCS-^10BSH-hpnevrs (HPNEVRS; not fully specified (some residues, N-terminus); printed as EMCS-^10BSH-hpnevrs) [^10BSH-dhp7]
[11]
  intracellular uptake of ^10BSH (fluorescence): dotted intracellular fluorescence was observed
[12]; 20 mg/kg intraperitoneal, no irradiation
  tumor reduction effect, non-BNCT treatment group: no tumor reduction effect was observed
[12]; 20 mg/kg intraperitoneal, two thermal neutron irradiations, one week after the second irradiation
  tumor reduction effect, BNCT treatment group: tumors almost completely disappeared
[12]; administration and BNCT treatment group
  residual tumors in pathological analysis of resected tissues: no residual tumors in four of eight cases

## c(MI-Cy7.5)-vc-hpnevrs [Cy7.5-vc-dhp7]
[13]
  start of selective accumulation in the tumor tissue: 60 min
  tumor accumulation maintained until: 96 h
[14]
  start of selective accumulation in the tumor tissue: 60 min
  time of maximum tumor accumulation: 2 to 24 h
  tumor accumulation maintained until: 96 h

## biotin-dst7 (D-amino acid peptide stsrntl modified with biotin at the N-terminus)
[1]
  Kd: 720 nM
